The values below come from US20250276983A1, “COMPOUNDS AND METHODS FOR MODULATING HER2” (IAMBIC THERAPEUTICS, INC., priority 2022, published 2025).

As usually defined, the IC50 is the point on the concentration scale where inhibition reaches its midpoint.

Holding throughout (type): cell-based
Assay [1] relates to BaF3_HER2YVMA cells. Kind of assay: Cell growth inhibition assay, BaF3_HER2YVMA. Particulars: 72 h, BaF3_HER2YVMA cells, 3 days treatment, CellTiterGlo 2.0; read-out: HER2-YVMA IC50 (nM), cell growth inhibition. On the technique in general: ATP-based viability assays read luminescence as a measure of living cells.
The subject of assay [2] is BaF3_EGFRWT cells. Kind of assay: Cell growth inhibition assay, BaF3_EGFRWT. Particulars: 72 h, 80 ng/mL recombinant human EGF, 3 days treatment, CellTiterGlo 2.0, read-out: EGFR WT IC50 (nM), cell growth inhibition.
Assay [3] has as its system BaF3_HER2WT cells. As to the kind of experiment: Cell growth inhibition assay, BaF3_HER2WT. Particulars: 72 h, 3 days treatment, CellTiterGlo 2.0, read-out: HER2 WT IC50 (nM), cell growth inhibition.

In the case of `COC1CCN(C/C=C/C(=O)N2CC(c3ccn4ncnc(Nc5ccc(Oc6ccn7ncnc7c6)c(C)c5)c34)C2)CC1` [Example 42, (E)-1-(3-(4-((4-([1,2,4]triazolo[1,5-a]pyridin-7-yloxy)-3-methylphenyl)amino)pyrrolo[2,1-f][1,2,4]triazin-5-yl)azetidin-1-yl)-4-(4-methoxypiperidin-1-yl)but-2-en-1-one], the IC50 in assay [1] is less than 200 nM; in assay [2] it was 1500 to 5000 nM; in assay [3], less than 200 nM.

Consider `Cc1cc(Nc2ncnn3ccc(C4CN(C(=O)/C=C/CC(C)C)C4)c23)ccc1Oc1ccn2ncnc2c1` [Example 43, (E)-1-(3-(4-((4-([1,2,4]triazolo[1,5-a]pyridin-7-yloxy)-3-methylphenyl)amino)pyrrolo[2,1-f][1,2,4]triazin-5-yl)azetidin-1-yl)-5-methylhex-2-en-1-one], for which the IC50 in assay [1] is 200 to 500 nM; in assay [2], 1500 to 5000 nM; in assay [3], less than 200 nM.

Turning to `C=CC(=O)N1CC2CCC(C1)N2c1ccn2ncnc(Nc3ccc(Oc4ccn5ncnc5c4)c(C)c3)c12` [Example 44, 1-(8-(4-((4-([1,2,4]triazolo[1,5-a]pyridin-7-yloxy)-3-methylphenyl)amino)pyrrolo[2,1-f][1,2,4]triazin-5-yl)-3,8-diazabicyclo[3.2.1]octan-3-yl)prop-2-en-1-one], the IC50 in assay [1] was less than 200 nM; in assay [2] it was 1500 to 5000 nM; in assay [3], less than 200 nM.

In the case of `Cc1cc(Nc2ncnn3ccc(N4C5CCC4CN(C(=O)/C=C/CN(C)C)C5)c23)ccc1Oc1ccn2ncnc2c1` [Example 45, (E)-1-(8-(4-((4-([1,2,4]triazolo[1,5-a]pyridin-7-yloxy)-3-methylphenyl)amino)pyrrolo[2,1-f][1,2,4]triazin-5-yl)-3,8-diazabicyclo[3.2.1]octan-3-yl)-4-(dimethylamino)but-2-en-1-one], the results for the IC50 in assay [1], in assay [2] and in assay [3] were less than 200 nM, 1500 to 5000 nM and less than 200 nM, respectively.

For `C=CC(=O)N1C2CCC1CN(c1ccn3ncnc(Nc4ccc(Oc5ccn6ncnc6c5)c(C)c4)c13)C2` [Example 46, 1-(3-(4-((4-([1,2,4]triazolo[1,5-a]pyridin-7-yloxy)-3-methylphenyl)amino)pyrrolo[2,1-f][1,2,4]triazin-5-yl)-3,8-diazabicyclo[3.2.1]octan-8-yl)prop-2-en-1-one], the IC50 in assay [1] was less than 200 nM; in assay [2] it was 200 to 500 nM; in assay [3], less than 200 nM.

Consider `Cc1cc(Nc2ncnn3ccc(N4CC5CCC(C4)N5C(=O)/C=C/CN(C)C)c23)ccc1Oc1ccn2ncnc2c1` [Example 47, (E)-1-(3-(4-((4-([1,2,4]triazolo[1,5-a]pyridin-7-yloxy)-3-methylphenyl)amino)pyrrolo[2,1-f][1,2,4]triazin-5-yl)-3,8-diazabicyclo[3.2.1]octan-8-yl)-4-(dimethylamino)but-2-en-1-one], for which the IC50 is less than 200 nM in assay [1], 1500 to 5000 nM in assay [2] and less than 200 nM in assay [3].

In the case of `C=C(CN(C)C)C(=O)N1C2CCC1CN(c1ccn3ncnc(Nc4ccc(Oc5ccn6ncnc6c5)c(C)c4)c13)C2` [Example 48, 1-(3-(4-((4-([1,2,4]triazolo[1,5-a]pyridin-7-yloxy)-3-methylphenyl)amino)pyrrolo[2,1-f][1,2,4]triazin-5-yl)-3,8-diazabicyclo[3.2.1]octan-8-yl)-2-((dimethylamino)methyl)prop-2-en-1-one], the IC50 was 1500 to 5000 nM in assay [1], 1500 to 5000 nM in assay [2] and 200 to 500 nM in assay [3].

As to `C=C(CN(C)C)C(=O)N1CC2CCC(C1)N2c1ccn2ncnc(Nc3ccc(Oc4ccn5ncnc5c4)c(C)c3)c12` [Example 49, 1-(8-(4-((4-([1,2,4]triazolo[1,5-a]pyridin-7-yloxy)-3-methylphenyl)amino)pyrrolo[2,1-f][1,2,4]triazin-5-yl)-3,8-diazabicyclo[3.2.1]octan-3-yl)-2-((dimethylamino)methyl)prop-2-en-1-one acetate], the IC50 is less than 200 nM in assay [1], 1500 to 5000 nM in assay [2] and less than 200 nM in assay [3].

As to `Cc1cc(Nc2ncnn3ccc(C4(O)CCN(C(=O)/C=C/CN(C)C)CC4)c23)ccc1Oc1ccn2ncnc2c1` [Example 50, (E)-1-(4-(4-((4-([1,2,4]triazolo[1,5-a]pyridin-7-yloxy)-3-methylphenyl)amino)pyrrolo[2,1-f][1,2,4]triazin-5-yl)-4-hydroxypiperidin-1-yl)-4-(dimethylamino)but-2-en-1-one], the results for the IC50 in assay [1], in assay [2] and in assay [3] were 500 to 1500 nM, 1500 to 5000 nM and 200 to 500 nM, respectively.

For the compound `Cc1cc(Nc2ncnn3ccc(C4(O)CN(C(=O)/C=C/CN(C)C)C4)c23)ccc1Oc1ccn2ncnc2c1` [Example 51, (E)-1-(3-(4-((4-([1,2,4]triazolo[1,5-a]pyridin-7-yloxy)-3-methylphenyl)amino)pyrrolo[2,1-f][1,2,4]triazin-5-yl)-3-hydroxyazetidin-1-yl)-4-(dimethylamino)but-2-en-1-one], the IC50 in assay [1] is less than 200 nM; in assay [2] it was 1500 to 5000 nM; in assay [3] it was less than 200 nM.

For the compound `COC1(c2ccn3ncnc(Nc4ccc(Oc5ccn6ncnc6c5)c(C)c4)c23)CCN(C(=O)/C=C/CN(C)C)CC1` [Example 52, (E)-1-(4-(4-((4-([1,2,4]triazolo[1,5-a]pyridin-7-yloxy)-3-methylphenyl)amino)pyrrolo[2,1-f][1,2,4]triazin-5-yl)-4-methoxypiperidin-1-yl)-4-(dimethylamino)but-2-en-1-one], the IC50 lay in the range of 500 to 1500 nM in assay [1], 1500 to 5000 nM in assay [2] and 200 to 500 nM in assay [3].

Turning to `Cc1cc(Nc2ncnn3ccc(C4=CCN(C(=O)/C=C/CN(C)C)CC4)c23)ccc1Oc1ccn2ncnc2c1` [Example 53, (E)-1-(4-(4-((4-([1,2,4]triazolo[1,5-a]pyridin-7-yloxy)-3-methylphenyl)amino)pyrrolo[2,1-f][1,2,4]triazin-5-yl)-3,6-dihydropyridin-1(2H)-yl)-4-(dimethylamino)but-2-en-1-one], the concentration for half-maximal inhibition (IC50) in assay [1] was less than 200 nM; in assay [2] it was 1500 to 5000 nM; in assay [3], less than 200 nM.

For the compound `Cc1cc(Nc2ncnn3ccc(N4CCN(C(=O)/C=C/CN(C)C)CC4=O)c23)ccc1Oc1ccn2ncnc2c1` [Example 54, (E)-1-(4-((4-([1,2,4]triazolo[1,5-a]pyridin-7-yloxy)-3-methylphenyl)amino)pyrrolo[2,1-f][1,2,4]triazin-5-yl)-4-(4-(dimethylamino)but-2-enoyl)piperazin-2-one], the IC50 fell in the range of 1500 to 5000 nM in assay [1], 1500 to 5000 nM in assay [2] and 500 to 1500 nM in assay [3].

For the compound `C=CC(=O)N1CCC2CCC(C1)N2c1ccn2ncnc(Nc3ccc(Oc4ccn5ncnc5c4)c(C)c3)c12` (stereo not drawn) [Example 55, 1-(9-(4-((4-([1,2,4]triazolo[1,5-a]pyridin-7-yloxy)-3-methylphenyl)amino)pyrrolo[2,1-f][1,2,4]triazin-5-yl)-3,9-diazabicyclo[4.2.1]nonan-3-yl)prop-2-en-1-one], the figures for the IC50 in assay [1], in assay [2] and in assay [3] were 500 to 1500 nM, 1500 to 5000 nM and less than 200 nM, respectively.

As for `Cc1cc(Nc2ncnn3ccc(C4CCN(C(=O)/C=C/CN5CCOCC5)CC4)c23)ccc1Oc1ccn2ncnc2c1` [Example 56, (E)-1-(4-(4-((4-([1,2,4]triazolo[1,5-a]pyridin-7-yloxy)-3-methylphenyl)amino)pyrrolo[2,1-f][1,2,4]triazin-5-yl)piperidin-1-yl)-4-morpholinobut-2-en-1-one], the results for the IC50 in assay [1], in assay [2] and in assay [3] were less than 200 nM, 1500 to 5000 nM and less than 200 nM, respectively.

Turning to `Cc1cc(Nc2ncnn3ccc(C4CCN(C(=O)/C=C/CN5CCCCC5)CC4)c23)ccc1Oc1ccn2ncnc2c1` [Example 57, (E)-1-(4-(4-((4-([1,2,4]triazolo[1,5-a]pyridin-7-yloxy)-3-methylphenyl)amino)pyrrolo[2,1-f][1,2,4]triazin-5-yl)piperidin-1-yl)-4-(piperidin-1-yl)but-2-en-1-one], the IC50 in assay [1] was less than 200 nM; in assay [2] it was 1500 to 5000 nM; in assay [3] it was less than 200 nM.

Regarding `COC/C=C/C(=O)N1CCC(c2ccn3ncnc(Nc4ccc(Oc5ccn6ncnc6c5)c(C)c4)c23)CC1` [Example 58, (E)-1-(4-(4-((4-([1,2,4]triazolo[1,5-a]pyridin-7-yloxy)-3-methylphenyl)amino)pyrrolo[2,1-f][1,2,4]triazin-5-yl)piperidin-1-yl)-4-methoxybut-2-en-1-one], the IC50 is 500 to 1500 nM in assay [1], 1500 to 5000 nM in assay [2] and less than 200 nM in assay [3].

For `C#CCN(C)C/C=C/C(=O)N1CCC(c2ccn3ncnc(Nc4ccc(Oc5ccn6ncnc6c5)c(C)c4)c23)CC1` [Example 59, (E)-1-(4-(4-((4-([1,2,4]triazolo[1,5-a]pyridin-7-yloxy)-3-methylphenyl)amino)pyrrolo[2,1-f][1,2,4]triazin-5-yl)piperidin-1-yl)-4-(methyl(prop-2-yn-1-yl)amino)but-2-en-1-one], the IC50 in assay [1] was 200 to 500 nM; in assay [2], 1500 to 5000 nM; in assay [3], less than 200 nM.

Consider `Cc1cc(Nc2ncnn3ccc(C4CN(C(=O)/C=C/CN5CCC(F)CC5)C4)c23)ccc1Oc1ccn2ncnc2c1` [Example 62, (E)-1-(3-(4-((4-([1,2,4]triazolo[1,5-a]pyridin-7-yloxy)-3-methylphenyl)amino)pyrrolo[2,1-f][1,2,4]triazin-5-yl)azetidin-1-yl)-4-(4-fluoropiperidin-1-yl)but-2-en-1-one], for which the IC50 was less than 200 nM in assay [1], 1500 to 5000 nM in assay [2] and less than 200 nM in assay [3].

For `Cc1cc(Nc2ncnn3ccc(N4CCN(C(=O)C(F)Cl)CC(F)(F)C4)c23)ccc1Oc1ccn2ncnc2c1` (stereo not drawn) [Example 63, 1-(4-(4-((4-([1,2,4]triazolo[1,5-a]pyridin-7-yloxy)-3-methylphenyl)amino)pyrrolo[2,1-f][1,2,4]triazin-5-yl)-6,6-difluoro-1,4-diazepan-1-yl)-2-chloro-2-fluoroethan-1-one], the IC50 in assay [1] was in the range of 500 to 1500 nM; in assay [2] it was 1500 to 5000 nM; in assay [3], 500 to 1500 nM.
